According to US20140128380A1, “METHODS OF MODULATING THE ACTIVITY OF THE MC1 RECEPTOR AND TREATMENT OF CONDITIONS RELATED TO THIS RECEPTOR” (Mimetica Pty Ltd, priority 2009, published 2014):

What was measured:
human MC1R [1] = target: T1, human MC1R (Homo sapiens, UniProt Q01726); assay: cAMP stimulation assay, agonist mode, HEK 293 cells transiently expressing MC1 receptor (Alphascreen); assay type: cell-based; set-up: host or cells: HEK 293 (transient transfection); conditions: HEK293 cell; read-out: human MC1R agonism (cAMP EC50 HEK293 cell)
T1 sequence (Q01726 whole entry): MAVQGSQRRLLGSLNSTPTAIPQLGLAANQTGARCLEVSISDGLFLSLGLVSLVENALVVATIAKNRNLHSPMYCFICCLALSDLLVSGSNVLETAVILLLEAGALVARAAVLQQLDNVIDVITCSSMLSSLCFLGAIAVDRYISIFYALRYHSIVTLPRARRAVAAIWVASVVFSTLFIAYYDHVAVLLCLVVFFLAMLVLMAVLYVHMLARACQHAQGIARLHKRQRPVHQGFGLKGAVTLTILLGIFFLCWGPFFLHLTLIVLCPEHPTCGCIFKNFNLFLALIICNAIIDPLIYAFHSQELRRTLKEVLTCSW
Procedure: HEK 293 cells transiently expressing the melanocortin MC1 receptor were suspended in stimulation buffer (Hanks buffered saline solution (HBSS), 0.1% bovine serum albumin, protease inhibitors and 0.5 mM 3-Isobutyl-1-methylxanthine) at 4×10^6 cells/mL. 5 μl of cells, plus the compounds/peptides as described below, were added to wells of a 384-well plate as soon as possible after resuspension.
To detect agonist activity, test compounds at varying concentrations were diluted in stimulation buffer at two times concentrate and 5 μl was added to wells containing cells. Positive control wells contained NDP-MSH or alpha-MSH alone (no compound) at two times concentrate
Basal level (of cAMP) control wells contained stimulation buffer only (no agonist or compounds). Known concentrations of cAMP (standards) in stimulation buffer were included on the plate, but no cells were added to these wells. The plate was then incubated for 30 mins at 37° C. with gentle shaking. After incubation, 10 μl of lysis buffer (10% Tween 20, 1 M HEPES, 0.1% BSA, protease inhibitors, ddH2O) was added to all wells to be measured. Detection of cAMP was then achieved using the Alphascreen cAMP kit (Perkin Elmer, USA), briefly described as follows. A dilution of 10 μl acceptor beads/mL of lysis buffer was prepared in low light conditions. 5 μl of diluted acceptor beads were added to each well to be measured, then the plate was incubated for 30 mins at room temperature, in the dark, with gentle shaking. In low light conditions, donor beads were diluted at 10 μl/mL of lysis buffer, to which 0.75 μl biotinylated cAMP/mL of lysis buffer was added. This mixture was allowed to incubate for 30 mins at room temperature (in the dark) before proceeding with the assay. Following incubation, 5 μl/mL of biotinylated cAMP/Donor bead mix were added per well in low light conditions and the plate was incubated in the dark, at room temperature, for a further hr. Plates were read on an Envision plate reader (Perkin Elmer) after 1 hr and ˜16 hrs incubation. cAMP concentration in the cells was determined by the use of a ‘standard curve’ generated from the output of known cAMP concentrations as described below.
Each assay plate contained a “standard curve” of known concentrations of cAMP, in 10 fold dilutions. This is an essential part of the assay as there is high inter-plate variability. The plates were read on an Envision multilabel plate reader fitted with Alphascreen technology and the raw data was imported into GraphPad Prism 4 software (GraphPad, USA) for analysis.

human MC1R (hMC1R) = target: T2, human MC1R (hMC1R) (Homo sapiens, UniProt Q01726); assay: Human MC1R radioligand binding assay (displacement of 125I-labeled NDP-MSH, Perkin Elmer hMC1R membranes); conditions: displacement of [125I]NDP-MSH, compounds tested as trifluoroacetate or hydrochloride salts or free base
T2 construct: purchased Perkin Elmer ES-195-M400UA
T2 sequence (Q01726 whole entry): as above
Outline: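 Frozen human MC1R membranes were incubated with in-house iodinated, HPLC-purified [125I]NDP-MSH for 1 hr at 37° C. Binding was measured as displacement of the labeled peptide.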

human MC1R [2] = target: T1, human MC1R; assay: cAMP accumulation in MM96L cells transiently transfected with wild type MC1R; assay type: cell-based; conditions: 30 min stimulation with 10 μM compound
Procedure: In a similar assay testing for MC1R agonism, MM96L cells were transiently transfected with wild type MC1R and stimulated with compound (10 μM) for different time points, with cAMP accumulation compared to basal cAMP levels and the cAMP response to stimulation with NDP-MSH

EC50 (human MC1R [1]) [µM] | IC50 (human MC1R (hMC1R)) [µM] | human MC1R agonism (cAMP, fold incease over basal level) (human MC1R [2]) [fold] | SMILES
16 | < 10 | – | N=C(N)NCCC[C@@H]1N[C@H](CNC(=O)c2ccc3ccccc3c2)CCN(CC2CCCCC2)C1=O [Compound 116, N-(((3S,5S)-1-(cyclohexylmethyl)-3-(3-guanidinopropyl)-2-oxo-1,4-diazepan-5-yl)methyl)-2-naphthamide]
– | < 10 | 2.5 | N=C(N)NCCC[C@H]1N[C@@H](CNC(=O)c2ccc(-c3ccccc3)cc2)CCN(C(c2ccccc2)c2ccccc2)C1=O [Compound 186, N-(((3R,5R)-1-benzhydryl-3-(3-guanidinopropyl)-2-oxo-1,4-diazepan-5-yl)methyl)biphenyl-4-carboxamide]
– | < 10 | 1.5 | NCC[C@@H]1N[C@H](CNC(=O)/C=C/c2ccc(Cl)cc2)CCN(CC(c2ccccc2)c2ccccc2)C1=O [Compound 136, (E)-N-(((3S,5S)-3-(2-aminoethyl)-1-(2,2-diphenylethyl)-2-oxo-1,4-diazepan-5-yl)methyl)-3-(4-chlorophenyl)acrylamide]
7 | < 10 | – | CC(=O)N[C@@H](Cc1c[nH]cn1)C(=O)N[C@H](Cc1ccccc1)[C@@H]1CCN(CCc2c[nH]c3ccccc23)C(=O)[C@H](CCCNC(=N)N)N1 [Compound 119, (S)—N—((R)-1-((3S,5S)-1-(2-(1H-indol-3-yl)ethyl)-3-(3-guanidinopropyl)-2-oxo-1,4-diazepan-5-yl)-2-phenylethyl)-2-acetamido-3-(1H-imidazol-4-yl)propanamide]
78 | < 10 | 1.5 | N=C(N)NCCC[C@H]1C(=O)N(C(c2ccccc2)c2ccccc2)CC[C@H]2CN(Cc3ccc(-c4ccccc4)cc3)C(=O)N21 [Compound 110, 1-(3-((5S,9aS)-7-benzhydryl-2-(biphenyl-4-ylmethyl)-3,6-dioxooctahydro-1H-imidazo[1,5-d][1,4]diazepin-5-yl)propyl)guanidine]
11 | < 10 | – | N=C(N)NCCC[C@@H]1N[C@H](CNC(=O)c2ccc(Oc3ccccc3)cc2)CCN(CC(c2ccccc2)c2ccccc2)C1=O [Compound 112, N-(((3S,5S)-1-(2,2-diphenylethyl)-3-(3-guanidinopropyl)-2-oxo-1,4-diazepan-5-yl)methyl)-4-phenoxybenzamide]
– | < 10 | 1.5 | N=C(N)NCCC[C@@H]1N[C@@H](CNC(=O)c2ccc(-c3ccccc3)cc2)CCN(C(c2ccccc2)c2ccccc2)C1=O [Compound 185, N-(((3S,5R)-1-benzhydryl-3-(3-guanidinopropyl)-2-oxo-1,4-diazepan-5-yl)methyl)biphenyl-4-carboxamide]
– | < 10 | – | Cc1ccc(/C=C/C(=O)NC[C@@H]2CCN(CC(c3ccccc3)c3ccccc3)C(=O)[C@H](CCN)N2)c(C)c1 [Compound 157, (E)-N-(((3S,5S)-3-(2-aminoethyl)-1-(2,2-diphenylethyl)-2-oxo-1,4-diazepan-5-yl)methyl)-3-(2,4-dimethylphenyl)acrylamide]
– | < 10 | – | O=C(/C=C/c1ccc(Cl)cc1)NC[C@@H]1CCN(CC(c2ccccc2)c2ccccc2)C(=O)[C@H](CN2CCCCC2)N1 [Compound 134, (E)-3-(4-chlorophenyl)-N-(((3S,5S)-1-(2,2-diphenylethyl)-2-oxo-3-(piperidin-1-ylmethyl)-1,4-diazepan-5-yl)methyl)acrylamide]
– | < 10 | – | CC[C@H](CN1CC[C@@H](CNC(=O)c2ccccc2-c2ccc(Cl)cc2)N[C@@H](CCN2CCCCC2)C1=O)c1ccccc1 [Compound 179, 4′-chloro-N-(((3S,5S)-2-oxo-1-((S)-2-phenylbutyl)-3-(2-(piperidin-1-yl)ethyl)-1,4-diazepan-5-yl)methyl)biphenyl-2-carboxamide]
